The first assay addresses Telomerase reverse transcriptase (Homo sapiens, UniProt O14746). Kind of assay: Effective concentration against telomerase by TRAP.
Sequence of Telomerase reverse transcriptase (O14746 whole entry): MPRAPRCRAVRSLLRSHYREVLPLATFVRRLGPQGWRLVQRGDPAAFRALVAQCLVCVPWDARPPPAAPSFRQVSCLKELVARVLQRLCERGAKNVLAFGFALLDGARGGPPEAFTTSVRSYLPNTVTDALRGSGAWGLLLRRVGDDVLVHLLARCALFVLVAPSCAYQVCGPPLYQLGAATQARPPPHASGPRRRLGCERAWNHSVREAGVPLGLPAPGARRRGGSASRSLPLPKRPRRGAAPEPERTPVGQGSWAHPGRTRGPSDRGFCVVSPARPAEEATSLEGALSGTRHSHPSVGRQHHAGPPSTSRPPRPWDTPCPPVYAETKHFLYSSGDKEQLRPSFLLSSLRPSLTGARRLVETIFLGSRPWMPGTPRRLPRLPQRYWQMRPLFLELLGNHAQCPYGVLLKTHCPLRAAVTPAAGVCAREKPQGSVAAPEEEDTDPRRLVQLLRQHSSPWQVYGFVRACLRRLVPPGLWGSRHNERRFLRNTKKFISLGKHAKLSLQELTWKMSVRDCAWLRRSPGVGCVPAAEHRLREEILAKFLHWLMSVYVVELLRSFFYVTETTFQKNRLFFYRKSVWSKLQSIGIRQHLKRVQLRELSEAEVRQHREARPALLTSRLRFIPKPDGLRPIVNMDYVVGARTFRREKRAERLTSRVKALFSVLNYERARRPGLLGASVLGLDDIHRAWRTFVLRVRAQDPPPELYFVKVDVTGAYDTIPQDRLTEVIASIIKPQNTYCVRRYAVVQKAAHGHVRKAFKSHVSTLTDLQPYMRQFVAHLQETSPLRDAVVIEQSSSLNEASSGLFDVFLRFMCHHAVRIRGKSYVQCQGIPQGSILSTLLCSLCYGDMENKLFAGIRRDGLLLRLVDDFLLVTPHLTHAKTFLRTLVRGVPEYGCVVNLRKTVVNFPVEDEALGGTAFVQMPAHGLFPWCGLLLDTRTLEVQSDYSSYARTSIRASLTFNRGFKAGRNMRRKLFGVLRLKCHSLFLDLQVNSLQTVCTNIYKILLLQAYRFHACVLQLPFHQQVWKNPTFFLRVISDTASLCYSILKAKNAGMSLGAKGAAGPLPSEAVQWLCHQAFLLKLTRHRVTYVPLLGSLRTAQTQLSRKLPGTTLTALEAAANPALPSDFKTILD
Consider `O=C(CCCCC(=O)N1CCOCC1)Nc1ccc(Nc2c3ccc(NC(=O)CCN4CCCC4)cc3nc3cc(NC(=O)CCN4CCCC4)ccc23)cc1`, for which the EC50 is 267 nM.
In the case of `CN(C)c1ccc(Nc2c3ccc(NC(=O)CCN4CCCC4)cc3nc3cc(NC(=O)CCN4CCCC4)ccc23)cc1`, the concentration giving a half-maximal response (EC50) came to 113 nM.
On to `O=C(CCCCC(=O)N1CCCC1)Nc1ccc(Nc2c3ccc(NC(=O)CCN4CCCC4)cc3nc3cc(NC(=O)CCN4CCCC4)ccc23)cc1`, for which the EC50 came out at 318 nM. Against the preceding molecule, the EC50 is about 2.8-fold higher.
Still for that read-out and setting: then `CN1CCN(C(=O)CCCCC(=O)Nc2ccc(Nc3c4ccc(NC(=O)CCN5CCCC5)cc4nc4cc(NC(=O)CCN5CCCC5)ccc34)cc2)CC1`, with 165 nM; and `CCN(CC)CCCCCCNC(=O)CCCCC(=O)Nc1ccc(Nc2c3ccc(NC(=O)CCN4CCCC4)cc3nc3cc(NC(=O)CCN4CCCC4)ccc23)cc1`, with 80 nM; and `CCN(CC)CCNC(=O)CCCCC(=O)Nc1ccc(Nc2c3ccc(NC(=O)CCN4CCCC4)cc3nc3cc(NC(=O)CCN4CCCC4)ccc23)cc1`, with 98 nM.

The test system of the next assay is Nucleic Acid. The assay is described as follows: Concentration required for G4-stabilisation in FRET assay. It counts as functional.
In the case of `O=C(CCCCC(=O)N1CCOCC1)Nc1ccc(Nc2c3ccc(NC(=O)CCN4CCCC4)cc3nc3cc(NC(=O)CCN4CCCC4)ccc23)cc1`, the Concentration worked out at 0.54 µM.
The same measure, in the same setting: under `CN(C)c1ccc(Nc2c3ccc(NC(=O)CCN4CCCC4)cc3nc3cc(NC(=O)CCN4CCCC4)ccc23)cc1` stands 0.72 µM; under `O=C(CCCCC(=O)N1CCCC1)Nc1ccc(Nc2c3ccc(NC(=O)CCN4CCCC4)cc3nc3cc(NC(=O)CCN4CCCC4)ccc23)cc1`, 0.72 µM.
For the molecule `CN1CCN(C(=O)CCCCC(=O)Nc2ccc(Nc3c4ccc(NC(=O)CCN5CCCC5)cc4nc4cc(NC(=O)CCN5CCCC5)ccc34)cc2)CC1`, the Concentration amounted to 0.59 µM.
On the same count and under the same terms, then `CCN(CC)CCCCCCNC(=O)CCCCC(=O)Nc1ccc(Nc2c3ccc(NC(=O)CCN4CCCC4)cc3nc3cc(NC(=O)CCN4CCCC4)ccc23)cc1`, with 0.49 µM; and `CCN(CC)CCNC(=O)CCCCC(=O)Nc1ccc(Nc2c3ccc(NC(=O)CCN4CCCC4)cc3nc3cc(NC(=O)CCN4CCCC4)ccc23)cc1`, with 0.46 µM.

For orientation: EC50 means the concentration at which the effect is half-maximal.

The record behind these values is ChEMBL document CHEMBL1137170, “Synthesis, biophysical and biological evaluation of 3,6-bis-amidoacridines with extended 9-anilino substituents as potent G-quadruplex-binding telomerase inhibitors” (Bioorg Med Chem Lett, 2004).
